Test results from ChEMBL document CHEMBL3763039, “Development and Characterization of Potent Cyclic Acyldepsipeptide Analogues with Increased Antimicrobial Activity” (2016).
In brackets after ≈: the same amount, converted by molar mass. Where a SMILES comes first, the peptide text is derived from it. Bridges are numbered along the chain shown (N, C = ends). [ ]: non-standard residue; d: D form. The star is where a group is joined. Phe(3,5-F2) = N[C@@H](Cc1cc(F)cc(F)c1)C(=O)O; Pip(4S-Me) = C[C@H]1CCN[C@H](C(=O)O)C1; 2Nal = N[C@@H](Cc1ccc2ccccc2c1)C(=O)O; Pro(4R-Me) = C[C@H]1CN[C@H](C(=O)O)C1; Tiq1c(1S) = O=C(O)[C@H]1NCCc2ccccc21; Bta = N[C@@H](Cc1csc2ccccc12)C(=O)O; Heptenoyl(2E) = CCCC/C=C/C(=O)*; aThr = C[C@H](O)[C@H](N)C(=O)O; Pip = O=C(O)[C@@H]1CCCCN1; Abu = CC[C@H](N)C(=O)O; Dap = NC[C@H](N)C(=O)O

Key:
Format in all cases: functional
Listeria innocua = assay: Antibacterial activity against Listeria innocua incubated for 16 to 18 hrs by broth microdilution method
Staphylococcus aureus [1] = assay: Antibacterial activity against methicillin-resistant Staphylococcus aureus 1784A incubated for 16 to 18 hrs by broth microdilution method
Bacillus subtilis = assay: Antibacterial activity against Bacillus subtilis PY79 incubated for 16 to 18 hrs by broth microdilution method
Staphylococcus aureus [2] = assay: Antibacterial activity against Staphylococcus aureus ATCC 29213 incubated for 16 to 18 hrs by broth microdilution method
Streptococcus pneumoniae = assay: Antibacterial activity against Streptococcus pneumoniae D39 incubated for 16 to 18 hrs by broth microdilution method
Staphylococcus aureus [3] = assay: Antibacterial activity against Staphylococcus aureus subsp. aureus Newman clinical isolate incubated for 16 to 18 hrs by broth microdilution method
Enterococcus faecalis = assay: Antibacterial activity against vancomycin-resistant Enterococcus faecalis V583 incubated for 16 to 18 hrs by broth microdilution method
Neisseria gonorrhoeae = assay: Antibacterial activity against chloramphenicol-resistant Neisseria gonorrhoeae N.279 incubated for 16 to 18 hrs by broth microdilution method
Neisseria meningitidis = assay: Antibacterial activity against Neisseria meningitidis H44/76 incubated for 16 to 18 hrs by broth microdilution method
Pseudomonas aeruginosa = assay: Antibacterial activity against Pseudomonas aeruginosa PAO1 incubated for 16 to 18 hrs by broth microdilution method
Escherichia coli [4] = assay: Antibacterial activity against Escherichia coli MC4100 expressing lptD-4213 incubated for 16 to 18 hrs by broth microdilution method
Escherichia coli [5] = assay: Antibacterial activity against Escherichia coli MC4100 incubated for 16 to 18 hrs by broth microdilution method

Row | SMILES | MIC (Listeria innocua) [µg/mL] | MIC (Staphylococcus aureus [1]) [µg/mL] | MIC (Bacillus subtilis) [µg/mL] | MIC (Staphylococcus aureus [2]) [µg/mL] | MIC (Streptococcus pneumoniae) [µg/mL] | MIC (Staphylococcus aureus [3]) [µg/mL] | MIC (Enterococcus faecalis) [µg/mL] | MIC (Neisseria gonorrhoeae) [µg/mL] | MIC (Neisseria meningitidis) [µg/mL] | MIC (Pseudomonas aeruginosa) [µg/mL] | MIC (Escherichia coli [4]) [µg/mL] | MIC (Escherichia coli [5]) [µg/mL]
1 | CCCC/C=C/C(=O)N[C@@H](Cc1cc(F)cc(F)c1)C(=O)N[C@H]1CNC(=O)[C@@H]2C[C@@H](C)CN2C(=O)[C@H](C)NC(=O)[C@@H]2CCCCN2C(=O)[C@@H]2CCCN2C1=O ({Heptenoyl(2E)}-[Phe(3,5-F2)][Dap]P[Pip]A[Pro(4R-Me)]; lactam 2-C) | ≤ 0.0625 | 16 (≈ 20.8 µM) | 4 (≈ 5.2 µM) | 4 (≈ 5.2 µM) | 2 (≈ 2.6 µM) | 16 (≈ 20.8 µM) | 0.5 (≈ 0.649 µM) | 1 (≈ 1.3 µM) | 1 (≈ 1.3 µM) | > 128 | > 128 | > 128
2 | CCCC/C=C/C(=O)N[C@@H](Cc1cc(F)cc(F)c1)C(=O)N[C@H]1COC(=O)[C@@H]2C[C@@H](C)CN2C(=O)[C@H](CC)NC(=O)[C@@H]2c3ccccc3CCN2C(=O)[C@@H]2CCCN2C1=O ({Heptenoyl(2E)}-[Phe(3,5-F2)]SP[Tiq1c(1S)][Abu][Pro(4R-Me)]; ester 2-C) | 0.125 (≈ 0.15 µM) | 4 (≈ 4.8 µM) | 2 (≈ 2.4 µM) | 4 (≈ 4.8 µM) | 0.5 (≈ 0.6 µM) | 8 (≈ 9.6 µM) | 0.25 (≈ 0.3 µM) | 8 (≈ 9.6 µM) | 8 (≈ 9.6 µM) | > 128 | > 128 | > 128
3 | CCCC/C=C/C(=O)N[C@@H](Cc1csc2ccccc12)C(=O)N[C@H]1COC(=O)[C@@H]2C[C@@H](C)CN2C(=O)[C@H](CC)NC(=O)[C@@H]2CCCCN2C(=O)[C@@H]2CCCN2C1=O ({Heptenoyl(2E)}-[Bta]SP[Pip][Abu][Pro(4R-Me)]; ester 2-C) | 0.125 (≈ 0.155 µM) | > 128 | 8 (≈ 9.94 µM) | 8 (≈ 9.94 µM) | 8 (≈ 9.94 µM) | 8 (≈ 9.94 µM) | 8 (≈ 9.94 µM) | > 128 | 32 (≈ 39.8 µM) | > 128 | > 128 | > 128
4 | C[C@@H]1C[C@H]2C(=O)O[C@@H](C)[C@H](NC(=O)[C@H](Cc3cc(F)cc(F)c3)NC(=O)/C=C/CCCCC(=O)O)C(=O)N3CCC[C@H]3C(=O)N3CCCC[C@H]3C(=O)N[C@@H](C)C(=O)N2C1 | 0.5 (≈ 0.603 µM) | 64 (≈ 77.2 µM) | 16 (≈ 19.3 µM) | 32 (≈ 38.6 µM) | 0.125 (≈ 0.151 µM) | 64 (≈ 77.2 µM) | 8 (≈ 9.65 µM) | 1 (≈ 1.21 µM) | 4 (≈ 4.83 µM) | > 128 | > 128 | > 128
5 | CCCC/C=C/C(=O)N[C@@H](Cc1cc(F)cc(F)c1)C(=O)N[C@@H]1C(=O)N2CCC[C@H]2C(=O)N2CC[C@H](C)C[C@H]2C(=O)N[C@@H](C)C(=O)N2CCC[C@H]2C(=O)O[C@H]1C ({Heptenoyl(2E)}-[Phe(3,5-F2)][aThr]P[Pip(4S-Me)]AP; ester 2-C) | ≤ 0.0625 | 1 (≈ 1.27 µM) | ≤ 0.0625 | 0.0078 (≈ 0.00994 µM) | ≤ 0.0625 | 0.5 (≈ 0.637 µM) | 0.0156 (≈ 0.0199 µM) | 0.125 (≈ 0.159 µM) | 0.125 (≈ 0.159 µM) | > 128 | > 128 | > 128
6 | CCCC/C=C/C(=O)N[C@@H](Cc1ccc2ccccc2c1)C(=O)N[C@H]1COC(=O)[C@@H]2C[C@@H](C)CN2C(=O)[C@H](CC)NC(=O)[C@@H]2CCCCN2C(=O)[C@@H]2CCCN2C1=O ({Heptenoyl(2E)}-[2Nal]SP[Pip][Abu][Pro(4R-Me)]; ester 2-C) | 0.5 (≈ 0.626 µM) | > 128 | 128 (≈ 160 µM) | > 128 | 2 (≈ 2.5 µM) | > 128 | 32 (≈ 40.1 µM) | > 128 | 32 (≈ 40.1 µM) | > 128 | > 128 | > 128
